Reference: patent US10233173B2, “Substituted 1,2,3-triazoles as NR2B-selective NMDA modulators” (JANSSEN PHARMACEUTICA NV, priority 2016, dated 2019)

Molecular target: human GluN1/GluN2B NMDA receptors (Homo sapiens, UniProt Q05586+Q13224)
Experiment: Cell-based calcium flux (FLIPR) assay on cloned human NR1/NR2B ion channels expressed in mammalian cells
Details: standard assay; glutamate at ~EC80; FLIPR calcium flux
Outline: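 Calcium influx followed by FLIPR fluorescence after 5 min compound exposure and a further 5 min co-agonist challenge: 10 μM glycine with glutamate at ~EC80 (standard) or EC40 (HTS).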

Sequence of human GluN1/GluN2B NMDA receptors (Q13224 27-1484, other chains not shown): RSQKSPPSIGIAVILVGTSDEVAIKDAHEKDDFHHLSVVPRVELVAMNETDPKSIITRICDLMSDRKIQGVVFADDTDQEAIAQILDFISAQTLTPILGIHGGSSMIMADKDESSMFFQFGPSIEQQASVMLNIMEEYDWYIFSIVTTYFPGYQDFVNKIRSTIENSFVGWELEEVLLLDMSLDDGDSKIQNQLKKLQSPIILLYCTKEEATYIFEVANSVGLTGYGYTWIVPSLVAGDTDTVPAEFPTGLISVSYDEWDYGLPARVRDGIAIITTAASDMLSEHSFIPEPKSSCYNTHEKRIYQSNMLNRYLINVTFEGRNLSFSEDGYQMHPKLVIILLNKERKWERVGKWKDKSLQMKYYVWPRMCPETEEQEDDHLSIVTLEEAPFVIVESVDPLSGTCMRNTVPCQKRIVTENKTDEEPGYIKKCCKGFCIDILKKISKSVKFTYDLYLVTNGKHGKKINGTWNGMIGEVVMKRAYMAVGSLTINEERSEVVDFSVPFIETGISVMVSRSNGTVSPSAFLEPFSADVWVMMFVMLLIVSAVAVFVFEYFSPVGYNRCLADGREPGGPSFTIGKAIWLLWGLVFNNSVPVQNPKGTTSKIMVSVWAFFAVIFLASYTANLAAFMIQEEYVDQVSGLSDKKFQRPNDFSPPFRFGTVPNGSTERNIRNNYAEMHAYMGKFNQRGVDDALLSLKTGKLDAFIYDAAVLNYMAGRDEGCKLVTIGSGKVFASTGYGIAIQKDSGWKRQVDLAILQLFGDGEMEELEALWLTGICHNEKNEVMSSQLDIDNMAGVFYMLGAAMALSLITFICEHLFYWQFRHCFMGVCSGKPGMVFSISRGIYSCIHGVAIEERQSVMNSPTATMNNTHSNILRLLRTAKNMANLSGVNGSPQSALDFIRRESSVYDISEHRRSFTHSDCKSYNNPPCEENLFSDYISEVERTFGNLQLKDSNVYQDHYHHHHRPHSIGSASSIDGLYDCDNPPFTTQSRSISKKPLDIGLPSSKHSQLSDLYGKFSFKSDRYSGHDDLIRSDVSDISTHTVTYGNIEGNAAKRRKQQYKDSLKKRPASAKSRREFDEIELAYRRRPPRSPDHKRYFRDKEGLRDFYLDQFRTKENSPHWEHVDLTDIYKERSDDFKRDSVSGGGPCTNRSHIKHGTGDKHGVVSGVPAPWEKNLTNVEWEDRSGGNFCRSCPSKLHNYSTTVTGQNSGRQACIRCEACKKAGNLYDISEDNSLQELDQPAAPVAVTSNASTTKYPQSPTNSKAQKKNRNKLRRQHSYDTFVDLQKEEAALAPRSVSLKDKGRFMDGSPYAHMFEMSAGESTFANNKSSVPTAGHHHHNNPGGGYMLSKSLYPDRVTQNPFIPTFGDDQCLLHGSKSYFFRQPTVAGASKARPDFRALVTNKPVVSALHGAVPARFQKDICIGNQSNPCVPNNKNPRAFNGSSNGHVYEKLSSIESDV

Question: With Cc1cccc(-n2cc(COc3ncc(Cl)cn3)nn2)c1F [Example 468, 5-Chloro-2-[[1-(2-fluoro-3-methyl-phenyl)triazol-4-yl]methoxy]pyrimidine] as the molecule, how does the IC50 read?
Answer: 1.25 µM

Question: With Cc1cccc(-n2cc(COc3ncc(C(F)(F)F)cn3)nn2)c1F [Example 469, 2-[[1-(2-Fluoro-3-methyl-phenyl)triazol-4-yl]methoxy]-5-(trifluoromethyl)pyrimidine] as the molecule, how does the IC50 read?
Answer: 1.06 µM

Question: How did the IC50 turn out when Cc1cccc(-n2cc(COc3ncc(Cl)c(C)n3)nn2)c1F [Example 470, 5-Chloro-2-[[1-(2-fluoro-3-methyl-phenyl)triazol-4-yl]methoxy]-4-methyl-pyrimidine] was run?
Answer: 0.659 µM

Question: For Cc1cccc(-n2cc(COc3ncc(OC(F)F)cn3)nn2)c1F [Example 471, 5-(Difluoromethoxy)-2-[[1-(2-fluoro-3-methyl-phenyl)triazol-4-yl]methoxy]pyrimidine], which IC50 is on record?
Answer: 1.73 µM

Question: With Cc1cc(-n2cc(COc3nccc(N)n3)nn2)ccc1F [Example 472, 2-[[1-(4-Fluoro-3-methyl-phenyl)triazol-4-yl]methoxy]pyrimidin-4-amine] as the molecule, how does the IC50 read?
Answer: 0.149 µM

Question: Which IC50 does the source give for Cc1cc(-n2cc(COc3ncccn3)nn2)ccc1F [Example 473, 2-[[1-(4-Fluoro-3-methyl-phenyl)triazol-4-yl]methoxy]pyrimidine] here?
Answer: 0.072 µM

Question: Which IC50 does the source give for Cc1cc(-n2cc(COc3ncc(F)cn3)nn2)ccc1F [Example 474, 5-Fluoro-2-[[1-(4-fluoro-3-methyl-phenyl)triazol-4-yl]methoxy]pyrimidine] here?
Answer: 0.022 µM

Question: How did the IC50 turn out when COCc1ccnc(OCc2cn(-c3ccc(F)c(C)c3)nn2)n1 [Example 479, 2-[[1-(4-Fluoro-3-methyl-phenyl)triazol-4-yl]methoxy]-4-(methoxymethyl)pyrimidine] was run?
Answer: 0.036 µM

Question: For Cc1cc(-n2cc(COc3ncc(F)c(C)n3)nn2)ccc1F [Example 481, 5-Fluoro-2-[[1-(4-fluoro-3-methyl-phenyl)triazol-4-yl]methoxy]-4-methyl-pyrimidine], which IC50 is on record?
Answer: 0.002 µM

Question: With Cc1cc(-n2cc(COc3ncc(OCCF)cn3)nn2)ccc1F [Example 483, 5-(2-Fluoroethoxy)-2-[[1-(4-fluoro-3-methyl-phenyl)triazol-4-yl]methoxy]pyrimidine] as the molecule, how does the IC50 read?
Answer: 0.007 µM

Question: Which IC50 does the source give for Cc1cnc(OCc2cn(-c3cc(C)ccc3F)nn2)nc1 [Example 484, 2-[[1-(2-Fluoro-5-methyl-phenyl)triazol-4-yl]methoxy]-5-methyl-pyrimidine] here?
Answer: 1 µM

Question: How did the IC50 turn out when Cc1ccc(F)c(-n2cc(COc3ncc(Cl)c(C)n3)nn2)c1 [Example 485, 5-Chloro-2-[[1-(2-fluoro-5-methyl-phenyl)triazol-4-yl]methoxy]-4-methyl-pyrimidine] was run?
Answer: 1.01 µM

Question: Cc1ccc(F)c(-n2cc(COc3ncc(F)c(C)n3)nn2)c1 [Example 486, 5-Fluoro-2-[[1-(2-fluoro-5-methyl-phenyl)triazol-4-yl]methoxy]-4-methyl-pyrimidine] was tested. Which IC50 did it give?
Answer: > 2.99 µM

Question: Cc1cc(F)ccc1-n1cc(COc2ncc(F)cn2)nn1 [Example 487, 5-Fluoro-2-[[1-(4-fluoro-2-methyl-phenyl)triazol-4-yl]methoxy]pyrimidine] was tested. Which IC50 did it give?
Answer: 16.2 µM

Question: COc1cnc(OCc2cn(-c3ccc(F)cc3C)nn2)nc1 [Example 488, 2-[[1-(4-Fluoro-2-methyl-phenyl)triazol-4-yl]methoxy]-5-methoxy-pyrimidine] was tested. Which IC50 did it give?
Answer: 2.65 µM

Question: For Cc1cc(F)ccc1-n1cc(COc2ncc(Cl)cn2)nn1 [Example 489, 5-Chloro-2-[[1-(4-fluoro-2-methyl-phenyl)triazol-4-yl]methoxy]pyrimidine], which IC50 is on record?
Answer: 4.42 µM

Question: How did the IC50 turn out when Cc1cnc(OCc2cn(-c3ccc(F)cc3C)nn2)nc1 [Example 490, 2-[[1-(4-Fluoro-2-methyl-phenyl)triazol-4-yl]methoxy]-5-methyl-pyrimidine] was run?
Answer: 2.44 µM

Question: For CCc1cnc(OCc2cn(-c3ccc(F)cc3C)nn2)nc1 [Example 491, 5-Ethyl-2-[[1-(4-fluoro-2-methyl-phenyl)triazol-4-yl]methoxy]pyrimidine], which IC50 is on record?
Answer: 1.17 µM
